Measurements reported in patent US9187539B2, “Compositions having antiangiogenic activity and uses thereof” (The Johns Hopkins University, priority 2005, dated 2015).

What was measured:
[1] = system: human umbilical vein endothelial cells (HUVECs); experiment: HUVEC proliferation assay (WST-1), 2- and 4-day, 5,000 cells per well; assay type: cell-based
Procedure: The effect of the various peptides on cell proliferation was assayed, by administering the peptides to human umbilical vein endothelial cells (HUVECs) in culture. 45 peptides belonging to four distinct families of proteins including the thrombospondin-1 containing proteins, the C-X-C chemokines, collagen derived peptides and peptides from tissue inhibitors of metalloproteinases were tested. The potency of each of the peptides was tested using the proliferation assay at 2 days and 4 days following administration of the peptides and a similar assay using a different cell density at 3 days. In the four-day experiments, the cell medium was changed after the second day of incubation and the peptide was replaced at the initial concentration together with the medium. TNP-470 is an antiangiogenic compound that was used as a positive control for assessing anti-angiogenic efficacy. The activity of each polypeptide was, therefore, expressed as a percentage of TNP-470 activity, i.e., the optical density obtained experimentally is scaled such that the negative control is 0% and the positive control is 100% as explained below (FIG. 4). Each plate included a well having HUVEC cells that received 0.1 μg/ml TNP-470. For example, a peptide having the same effect on endothelial cell proliferation would have 100% of the activity of TNP-470. Note that activity could exceed 100%. In this assay, the effects of the predicted anti-angiogenic fragments on the ability of HUVECs to proliferate was characterized. […] A commonly used methodology to test for proliferation is to monitor the viability and metabolic activity of endothelial cells, in the presence of the anti-angiogenic fragments at different concentrations and various time steps. The cell proliferation reagent WST-1 was used as a substrate/assay to measure the metabolic activity of viable cells. WST-1 is a colorimetric, non-radioactive assay and can be performed in a microplate. It is suitable for measuring cell proliferation, cell viability or cytotoxicity. The assay is based on the reduction a red tetrazolium salt, WST-1, by viable, metabolically active, cells to form the yellow formazan crystals soluble in the cell medium. […] The cells are cultured described above. Once cells have reached 80% confluence they are trypsinized and resuspended in EGM-2. The cell density is estimated using a hemocytometer. All of the endothelial cells used were from passage 4 to passage 8. The proliferation assay involved two steps. During the first step the cells, approximately 5,000 cells per well for a 96-well plate, were seeded without any extracellular matrix substrate on the wells overnight (8 hours). The initial cell culture medium was removed using a multichannel pipetor and the candidate peptides were applied. A logarithmic scale of four different concentrations of 0.01 μg/ml, 0.1 μg/ml, 1 μg/ml and 10 μg/ml of each peptide was used. Each of the concentrations was tested in quadruplicate. The viability of the cells was challenged at 2 and 4 days upon the application of the peptide. As a positive control for decreased viability, 0.1 μg/ml of TNP-470 (O-(chloro-acetyl-carbamoyl) fumagillol, a synthetic analogue of fumagillin; TNP-470 was provided by NCI, was provided along with the medium, and as a negative control for normal viability, the cells were cultured without the addition of any agent. The cells were then incubated with 10 μl per well of the red WST-1 reagent for approximately 2 to 4 hours. During this incubation period, viable cells converted, in their mitochondria, the red WST-1 to the yellow formazan crystals which dissolve in the medium. The second step of the assay involved the quantification of the changes in proliferation which was performed by measuring the change in color after lysing the cells. The samples were read using the ELISA plate reader Victor3 V (Perkin Elmer) at a wavelength of […]. The amount of color produced is directly proportional to the number of viable cells. […]

[2] = system: human umbilical vein endothelial cells (HUVECs); experiment: HUVEC proliferation assay (WST-1), 3-day, 2,000 cells per well; assay type: cell-based; conditions: 3-day assay
Procedure: In addition to the 2 and 4 day proliferation experiment where 5,000 cells per well were seeded, the effects of the peptides on the proliferating ability of HUVECs were also studied using cells seeded at a density of 2,000 cells per well. This lower cell seeding density allowed the experiment to be extend for an additional day without changing the cell medium. The effects of the peptides when applied to the cells for 3 consecutive days is also reported herein. The proliferation assay again involved two steps. During the first step 2,000 cells per well for a 96-well plate were seeded without any extracellular matrix substrate on the wells overnight (8 hours). The initial cell culture medium was removed using a multichannel pipetor. To synchronize the cells, the cells were serum starved for 4 hours and the candidate peptides were applied. During serum starvation the cell culture medium was changed from a “full” medium to the “basal” medium, which contained no growth factors or serum. Serum starvation for 4 hours had no effect on the proliferation of the cells. For this assay, the logarithmic scale of four different concentrations of 0.01 μg/ml, 0.1 μg/ml, 1 μg/ml and 10 μg/ml of peptide was used. In addition, a larger concentration of 30 μg/ml peptide was also applied. Each of the concentrations was again tested in quadruplicate. After the third day of peptide application the WST-1 dye was applied for approximately 2 to 4 hours (usually after 3 hours the color saturates). The proliferation was later tested on the ELISA plate reader as described for the 2 and 4 day assay. Note that the 2- and 4-day and the 3-day protocols differed in that 5,000 cells/well versus 2,000 cells/well seeded, respectively.

[3] = system: angiogenesis (endothelial cell invasion of basement membrane extract with bFGF and VEGF); experiment: Directed in vivo angiogenesis assay (DIVAA), subcutaneously implanted angioreactors; design: species or system C57BL/6 mice; conditions: 200 μg/ml peptide with bFGF and VEGF in the matrix; 11 days after implantation
Procedure: A directed in vivo anti-angiogenesis assay (DIVAA) was used to test the anti-angiogenic efficacy of the alpha 5 fibril of collagen type 4, which had the sequence: SAPFIECHGRGTCNYYANS (SEQ ID NO: 91). […] The peptide was solubilized in buffer solution at 200 μg/ml without an organic solvent. DIVAA is a reproducible and quantitative in-vivo method of assaying angiogenesis. It involves preparation of silicon cylinders of 20 μl volume, closed on one side, filled with some type of extracellular matrix (for example Matrigel or BME-basement membrane extract) with or without premixed angiogenic factors. These angioreactors are then implanted subcutaneously in the dorsal flank of mice. Accompanied with the onset of angiogenesis, vascular endothelial cells migrate into the extracellular matrix and form vessels in the angioreactor. […]
To obtain a quantitative assessment of the angiogenic invasion, the content of the angioreactors was removed from the cylinder and the endothelial cells were stained using FITC-Lectin (FIG. 38A) Once the tubes were extracted from the mice, the inside of the angioreactors was rinsed with 300 μl of a 36 kDa, bacillus-derived neutral metalloproteinase which is commercially available as Cellsperse (Trevigen, Inc., Gaithersburg, Md.), an extracellular matrix digesting solution and the content of the reactors as well as the rinse was transferred into a microtube. […]

Sequence | anti-proliferative activity in words ([1]; 2- and 4-day assay, overall) | anti-proliferative activity in words at high peptide concentration ([2]; high/highest applied concentration (30 μg/ml where stated)) | endothelial cell invasion of the extracellular matrix in angioreactors [3] | inhibition of angiogenesis in angioreactors [3] | anti-proliferative activity (maximum or stated level), scaled so that TNP-470 = 100% ([1]; 4 days of peptide application, 0.01-10 μg/ml) | anti-proliferative activity, TNP-470 = 100% ([2]; 30 μg/ml peptide)
SAPFIECHGRGTCNYYANS [SEQ ID NO: 91, α5CIV AAC27816.1: 1626-1644] | low activity | activity increases | Fewer endothelial cells invaded the extracellular matrix | strongly inhibited angiogenesis | – | –
YCNINEVCHYARRNDKSYWL [SEQ ID NO: 93, α6CIV CAI40758.1: 1526-1545] | – | – | – | – | 15% | 80%
